Tests used:
sheep drill defect = assay: Sheep bone drill defect healing; format: in vivo; details: healing time 8 weeks
Experimental: To form the fibrin gel, the dilute precursors were mixed together by injecting the fibrinogen into the tube containing the thrombin. In case of the sheep drill defect (as described below) this mixture was then injected immediately into a drill defect created in sheep cancellous bone, where a fibrin gel formed within 1-5 minutes. In the first series of animal experiments, the efficacy of a fusion protein containing PTH1-34 as the bioactive factor ([…], SEQ ID NO:38) in healing cortical bone was tested in a small animal model. The sequence, YKNR, makes the linkage plasmin degradable (“TG-pl-PTH1-34). The TG-pl-PTH1-34 was made by chemical synthesis. […] The purity of the TG-pl-PTH1-34 was determined to be 95%.
TG-pl-PTH1-34 was tested as well in a long bone defect model to test the effect of this hormone on healing bone. In the sheep drill defect model, 8 mm cylindrically drill defects that were approximately 15 mm deep were placed in both the proximal and distal region of the femur and humerus bones. Since the defect was placed in the epiphysis of the long bones, the defect was surrounded by trabecular bone with a thin layer of cortical bone at the rim of the defect. These defects were then filled with an in situ polymerizing fibrin (about 750 μL) that contained various doses of TG-pl-PTH1-34. or TGPTH1-34. Animals were allowed to heal for eight weeks and then were sacrificed. The defect was analyzed with μCT and histology.
For this series of experiments, three types of compositions were tested. First, TG-pl-PTH1-34 was tested over a large concentration range. […] Thus, TGPTH1-34 could only be liberated by degradation of the fibrin matrix itself. TGPTH1-34 was produced and purified similar to TG-pl-PTH1-34. Purity was determined to be 95%. TGPTH1-34 was tested at several concentrations that were similar to the concentrations of TG-pl-PTH1-34 to compare efficacy. Finally, matrices were made in the presence of granular material, with either TGPTH1-34 or TG-pl-PTH1-34. The granular material was a standard tricalcium phosphate/hydroxyapatite mixture which was embedded in the matrix during gelation. The effect of adding these granules on the efficacy of PTH1-34 was explored. As a control, unmodified fibrin was tested.
The fibrin gel for all experiments was made as described in Example 7. The sheep bone defects were prepared as described in Example 7. The defects were filled with 750 μL of fibrin matrix alone (control) or with TG-pl-PDGFAB, TG-pl-IGF1 or TG-pl-BMP2. The sheep were allowed to heal for eight weeks and were then sacrificed. The explanted defect area was examined with μCT to evaluate the degree of new bone formation.

[1] = tested on: critical size rat cranial defect; assay: Rat critical size cranial defect healing; format: in vivo; details: for Healing (% defect filled with bone): Time 63 Days
chick DRGs = assay: Neurite extension of DRGs in fibrin matrices with immobilized β-NGF fusion proteins; format: cell-based
Excerpt: FIG. 3 is a graph of the effect of immobilized β-NGF fusion proteins on DRG neurite extension within fibrin matrices. Mean values and standard error of the mean are shown. ▪ denotes native NGF. ♦ denotes TG-P-NGF. ● denotes TG-Pi-NGF. * denotes p<0.0001 versus unmodified fibrin with NGF in the culture medium.
To determine the ability of covalently immobilized β-NGF fusion protein to be delivered in a controlled manner, β-NGF fusion proteins were incorporated into fibrin matrices during polymerization, and the ability of these matrices to enhance neurite extension in vitro was assayed using chick DRGs. […] A dose response effect for TG-P-NGF fusion protein was observed, with an optimal dose attained when 1-5 μg/mL of β-NGF fusion protein was present in the polymerization mixture. […] Despite the lower activity of the β-NGF fusion proteins in the PC12 cell activity assay, when the plasmin degradable β-NGF fusion protein was covalently coupled to fibrin, it promoted greater levels of neurite extension than the same dose of native NGF in the culture medium.

[2] = tested on: chronic leg ulcers of the venous stasis origins; assay: Chronic wound healing on skin in human patients; format: in vivo
Experimental: TG-pl-PDGF AB as described in Example 7 was incorporated into fibrin gels at 33 μg/mL gel and applied topically to patients with chronic leg ulcers of the venous stasis origins (at the Dermatology Klinik of the University Hospital Zürich.)
The fibrin gels were made from Baxter TISSUCOL® kits (Baxter AG, CH 8604 Volketswil) by diluting the fibrinogen component with Citrate-Glycine buffer (pH 7.3) and diluting the thrombin component with 40 mM Calcium chloride-glycine buffer (pH 7.0). The final concentration of fibrinogen in the applied fibrin gel was about 12.5 mg fibrinogen/mL gel. The thrombin concentration was varied to improve handling of the gels. The final concentration of thrombin in the applied fibrin gel was about 4 to 50 U/mL. TG-pl-PDGF AB was added to the diluted fibrinogen component at 66 μg/mL for a total of 33 μg/mL gel concentration. The diluted fibrinogen and thrombin components were packed in separate sterile syringes at the same volume and deep frozen at −20° C. until use.
The gels were applied via a dual syringe system as provided in the TISSUCOL® kit from Baxter. Briefly, each syringe contained either diluted fibrinogen or diluted thrombin. The two syringes were connected to an applicator set and joined by a tip with a blunt cannula. To form a gel, both components were pushed out of the syringes simultaneously, making a 1:1 mixture fibrin gel directly on the ulcer area. Ulcers were covered with a thin sheath of gel, which was allowed to dry for 2 minutes before standard dressing and compression bandaging was applied.

[3] = tested on: day 8 chick embryonic dorsal root ganglia; assay: Dorsal root ganglia neurite extension in fibrin gels with peptide/heparin-bound growth factor; format: cell-based; details: DRG
Excerpt: FIG. 2 is a graph of the effect of matrix bound bFGF on DRG neurite extension at 48 hr. Mean values and standard deviation of the mean are shown. (* denotes p<0.05 compared with unmodified fibrin.)
In order to evaluate this approach to release of heparin-binding growth factors from fibrin cell in-growth matrices that also comprise a covalently linked bi-domain peptide, one domain of which is a factor XIIIa substrate and one domain of which is a heparin-binding domain based on antithrombin III, dorsal root ganglia were cultured three-dimensionally within fibrin gels under a variety of conditions, as shown in the below.
Cross-linking Protocol for Use of Heparin-Binding Peptides: • 1) Dialyze fibrinogen (8 mg/ml) versus 4 L of Tris buffered saline (33 mM Tris), pH 7.4 for 24 hours. • 2) Sterile filter fibrinogen using a 0.2 μm syringe filter. • 3) Make the following peptide solutions:
• 4) Make thrombin solution: 100 units in 5 ml TBS. • 5) Add 1.4 ml of fibrinogen to each peptide solution. • 6) Make gels: Add 20 μl of TBS+50 mM CaCl2, 40 μl of thrombin solution (20 units/ml), and 340 μl of peptide solution+fibrinogen. (above solutions make 6 gels). • 7) Incubate at 37° C. for 1 hr. • 8) Wash 5 times in 24 hours. Use 1 ml of TBS the first 4 times and neuronal media the last time. • 9) Dissect day 8 chick embryonic dorsal root ganglia. • 10) Place one ganglia in each gel and place at 37° C. for 1 hr. • 11) Add 1 ml of neuronal media to each gel. • 12) Change media after 24 hours.

fibrin gels = fibrin gels (Homo sapiens, UniProt P02671+P02675+P02679); details: cross-linked during polymerization; gels degraded with plasmin; n=10
Chain of fibrin gels (P02671 20-644 isoform P02671-2 limits assumed): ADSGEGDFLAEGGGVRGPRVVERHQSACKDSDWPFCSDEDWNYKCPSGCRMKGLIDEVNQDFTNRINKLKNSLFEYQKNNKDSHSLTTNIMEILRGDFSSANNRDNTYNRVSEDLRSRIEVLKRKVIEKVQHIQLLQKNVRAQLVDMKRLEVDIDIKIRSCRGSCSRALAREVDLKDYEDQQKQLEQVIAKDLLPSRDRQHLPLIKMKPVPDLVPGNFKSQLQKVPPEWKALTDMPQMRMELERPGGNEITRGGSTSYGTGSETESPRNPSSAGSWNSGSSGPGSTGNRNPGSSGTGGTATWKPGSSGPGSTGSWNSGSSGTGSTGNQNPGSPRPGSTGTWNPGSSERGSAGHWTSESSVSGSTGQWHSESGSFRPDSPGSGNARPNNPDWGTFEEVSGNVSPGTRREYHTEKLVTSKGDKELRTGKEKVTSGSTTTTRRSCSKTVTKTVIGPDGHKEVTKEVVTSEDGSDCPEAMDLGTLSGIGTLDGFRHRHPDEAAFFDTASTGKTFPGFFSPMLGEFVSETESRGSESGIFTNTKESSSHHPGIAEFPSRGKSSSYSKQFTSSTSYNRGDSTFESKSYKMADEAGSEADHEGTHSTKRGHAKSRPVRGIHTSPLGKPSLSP
Chain of fibrin gels (P02675 45-491 limits assumed): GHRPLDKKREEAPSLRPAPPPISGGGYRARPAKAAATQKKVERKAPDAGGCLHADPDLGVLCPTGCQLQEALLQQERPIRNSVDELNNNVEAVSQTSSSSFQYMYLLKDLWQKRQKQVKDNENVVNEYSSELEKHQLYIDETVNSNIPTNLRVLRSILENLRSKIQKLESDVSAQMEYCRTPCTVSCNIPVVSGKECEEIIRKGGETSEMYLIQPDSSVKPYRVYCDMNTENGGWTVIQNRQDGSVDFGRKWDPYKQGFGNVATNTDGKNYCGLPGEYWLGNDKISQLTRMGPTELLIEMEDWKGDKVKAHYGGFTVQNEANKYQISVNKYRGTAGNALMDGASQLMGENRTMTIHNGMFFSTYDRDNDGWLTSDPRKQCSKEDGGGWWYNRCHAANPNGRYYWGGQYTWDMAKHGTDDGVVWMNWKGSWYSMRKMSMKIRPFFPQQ
Chain of fibrin gels (P02679 27-437 isoform P02679-2 limits assumed): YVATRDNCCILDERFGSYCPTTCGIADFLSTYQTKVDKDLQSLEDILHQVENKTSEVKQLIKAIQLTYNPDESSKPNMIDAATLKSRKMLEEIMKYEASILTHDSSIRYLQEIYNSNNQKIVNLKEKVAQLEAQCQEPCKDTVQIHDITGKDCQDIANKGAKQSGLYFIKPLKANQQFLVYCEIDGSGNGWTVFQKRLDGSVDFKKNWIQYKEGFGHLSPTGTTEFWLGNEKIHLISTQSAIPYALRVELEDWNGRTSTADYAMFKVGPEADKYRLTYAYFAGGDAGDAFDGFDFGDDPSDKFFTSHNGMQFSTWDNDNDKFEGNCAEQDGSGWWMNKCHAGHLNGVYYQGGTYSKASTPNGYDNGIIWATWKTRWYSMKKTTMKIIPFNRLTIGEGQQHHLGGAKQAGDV
Experimental: Size exclusion chromatography was used to determine the amount of peptide cross-linked to fibrin gels using the previously developed incorporation method. A bi-domain peptide containing the heparin-binding domain from antithrombin III and a fluorescent label was incorporated into fibrin gels during polymerization. The free peptide was washed from the gels, and the fibrin network was degraded with plasmin. The degradation products were analyzed by high performance liquid chromatography (size exclusion chromatography) to determine the amount of peptide (by fluorescence) present per mole of fibrinogen (by UV absorbance).

[4] = Dose 400 μg/mL in fibrin matrix
[5] = Dose 1000 μg/mL in fibrin matrix
[6] = fusion protein covalently immobilized in fibrin matrix

NQEQVSPLSVSEIQLMHNLGKHLN SMERVEWLRKKLQDVHNF (NQEQVSPLSVSEIQLMHNLGKHLNSMERVEWLRKKLQDVHNF; Modified parathyroid hormone from Homo sapiens) [TGPTH1-34]
Healing (% defect filled with bone) (sheep drill defect; [4]): 40% | Healing (% defect filled with bone) (sheep drill defect; [5]): 65%

NQEQVSPLYKNRSVSEIQLMHNLGKHLNSMERVEWLRKKLQDVHNF (Modified parathyroid hormone from Homo sapiens) [TG-pl-PTH1-34]
Healing (% defect filled with bone) (sheep drill defect; Dose 50 μg/mL in fibrin matrix): 31.3% | Healing (% defect filled with bone) (sheep drill defect; Dose 100 μg/mL in fibrin matrix): 59.7% | Healing (% defect filled with bone) (sheep drill defect; [4]): 73% | Healing (% defect filled with bone) (sheep drill defect; [5]): 77% | level of healing ([1]; 3 week timepoint): very similar to that observed with a fibrin matrix alone | Healing (% defect filled with bone) ([1]; Dose 10 μg/ml in fibrin matrix): 43% | Healing (% defect filled with bone) ([1]; Dose 200 μg/ml in fibrin matrix): 50% | Healing (% defect filled with bone) ([1]; Dose 500 μg/ml in fibrin matrix): 62% | increase of healing response ([1]; high dose, 7 weeks, versus fibrin alone): 65%

TG-P-NGF: β-NGF fusion protein with factor XIIIa substrate NQEQVSPL and functional plasmin substrate LIK/MKP (SEQ ID NO:24)
optimal dose of β-NGF fusion protein in the polymerization mixture for neurite extension (chick DRGs; dose response in fibrin matrices): 1 to 5 µg/mL | enhancement of neurite extension over unmodified fibrin with 10 ng/mL of native NGF in medium (chick DRGs; [6]): up to 50% | enhancement of neurite extension versus unmodified fibrin with no NGF present in the culture medium (chick DRGs; [6]): over 350%

TG-pl-IGF1: IGF1 fusion protein with TG-pl-hook (SEQ ID NO:42)
Healing (% defect filled with bone) (sheep drill defect; Dose 67 μg/mL in fibrin matrix): 41.5%

TG-pl-PDGFAB: PDGF AB heterodimer with 21 amino acid TG-pl-hook on both N termini (SEQ ID NO:40 and 41)
Healing (% defect filled with bone) (sheep drill defect; Dose 60 μg/mL in fibrin matrix): 39.5% | healing response ([2]; 33 μg/mL fibrin gel, topical, all three patients): enhanced healing response | time to complete healing of wound ([2]; 33 μg/mL fibrin gel, topical, one patient, wound about 2 cm^2): ≤ 4 weeks | time to complete healing of wound ([2]; 33 μg/mL fibrin gel, topical, third patient, deep wound down to the periost (1 cm^2)): 15 weeks | decrease in wound bed depth as well as surface area ([2]; 33 μg/mL fibrin gel, topical, two large wounds on one patient (up to 17 cm^2), after 8 weeks): 30-50% | healing versus standard treatment alone ([2]; fibrin gel treatment, doctors' assessment): strong enhancement of healing

VEGF
effect on neurite extension ([3]; 1.0 μg/ml bound VEGF): did not increase neurite extension

bFGF: basic fibroblast growth factor, heparin-binding growth factor
effect on neurite extension ([3]; 1 μg/ml and 5 μg/ml of bound bFGF (peptide + heparin in fibrin), dose dependent, 48 hr): increased | effect on neurite outgrowth ([3]; bFGF added without peptide and heparin, gels washed, 48 hr): does not enhance neurite outgrowth

dLNQEQVSPK(βA)FAKLAARLYRKA
incorporation of peptide into fibrin (fibrin gels): 8.7±0.2 moles of peptide per mole of fibrinogen

Reference: patent US7601685B2, “Growth factor modified protein matrices for tissue engineering” (Eidgenossische Technische Hochschule Zurich, priority 1998, dated 2009)
